Legend:
[1] = Lamb trials: growth, feed efficiency, wool and carcass; format: in vivo, lambs (sheep)
Source text: The lambs used in Trial 1 consisted of medium-frame crossbred wethers and ewes weighing 26 to 31 kg. The lambs used in Trial 2 consisted of medium-framced crossbred rams weighing 18 to 25 kg. Each animal was raised as a single. The lambs were housed in a temperature controlled room in individual pens with nipple waterers. When received, the lamps were vaccinated for enterotoxemia. They were allowed to adjust to the pens and the environment for 10 days. One day before the trial began, the lambs were sheared and placed on their respective dietary treatments. The lamps were allotted blocking by weight and sex into two dietary treatment groups. Growth and feed consumption were measured bi-weekly. All lamb weights were taken after a 12 to 16 hour fast. The animals were slaughtered at 50 kg in the Iowa State University Meat laboratory facilities at Ames, Iowa. At slaughter, the lamb's internal organs and wool were weighed and sampled, loin eye area and back fat measured, and carcasses separated into fat, lean, and bone.
The SMB (soybean meal-containing) and the CGM (corn-gluten-containing) diets (compositions given in Table A) were fed twice per day in quantities ensuring that feed was before the lambs at all times. The diets were calculated to be equivalent to each other with respect to metabolizable protein, ether extract, fiber, and minerals with the exception of calcium and phosphorus. […] The CGM diet was calculated to contain slightly more energy (TDN 81.7 vs. 79.0, NEm 1.88 v. 1.86, Neg. 1.23 vs. 1.22). […] The soybean meal ingredient contained about 3.5 wt % leucine, while the corn gluten meal ingredient contained about 15 wt % leucine. The CGM diet was therefore higher in leucine than the SBM diet, containing an estimated 16 wt % leucine as compared with an estimated 8 wt % leucine based on total crude protein in the diet.
^(1) Feed ingredients given on wt % basis.
^(3) Diets containing calcium salt of alphaketoisocaproate (KIC).
^(1) Statistical analysis: *designates p < .05, a significant
^(2) Average daily (24 hrs.) gain (kilograms).
^(3) Kilograms feed per kilogram weight gain.
^(4) Amount of wool in grams.
^(5) Amount of back fat in inches.
^(6) Amount of lean meat in kilograms.
^(1)- (8) See Table B, except cholesterol data is for lean tissue

[2] = Dairy Cattle Trial: nitrogen balance, milk production and composition; format: in vivo, Holstein and Brown Swiss cows (cattle)
Source text: Eight Holstein and four Brown Swiss cows were assigned randomly (blocking for lactation number and breed) to either a control or treatment group. Four of the Holsteins and two of the Brown Swiss were in their first lactation and all cows were between 134-283 days into lactation (mid-lactation). Cows were milked twice daily (2:30 a.m. and 2:00 p.m.).
Cows were fed ad libitum a total mixed ration twice daily (7:30 a.m. and 5:30 p.m.) with feed refusals collected before the morning feeding. The diet consisted of 31% chopped alfalfa hay, 18% corn silage, and […] (as a % of the dry matter). The grain mix was calculated to contain 1.55 Mcal NE/kg dry matter and 16% crude protein. A major portion of the grain protein was from expeller processed soybean meal with higher than usual bypass characteristics. The cows were consuming protein in excess of their normal requirements. The grain ration contained an estimated 10% leucine (total protein basis), and the complete diet contained an estimated 9% leucine (total protein basis).
During the treatment period half the cows received Na-KIC at 0.75% of the diet dry matter. KIC was fed in a mixture which consisted of Na-KIC, corn gluten meal, hydrogenated soy oil and paraffin in a ratio of 2:1.0:0.1:0.1. The mixture was extruded and formed into crumbles. At least part of the KIC may have escaped rumen degradation with this treatment. Additionally, 100 units of tocopherol were added per gram of Na--KIC to prevent oxidation of KIC. Control animals were fed an equivalent amount of the same mixture but without KIC added.
During the first two weeks of the experiment (control period; designated weeks -2 and -1), all cows received the same diet. The trial period extended over the next three weeks (weeks 1, 2, 3) during which cows received either the KIC or control mix top-dressed on their diets twice per day (half the dose in the morning, half in the evening). Throughout the experiment, daily milk yield, milk composition, and feed consumption was measured for each cow. At the end of the control period and at the end of the treatment period, uninary catheters were inserted and total urine and fecal collections were made for 48 hrs. Results of production and nitrogen balance studies were analyzed statistically using each cow as her own control. The trial effect was measured by subtracting the average control period value from the value during the treatment period. ANOVA was used to detect differences between the KIC-fed and control groups.

[3] = Na-KIC 0.75% of diet dry matter, pre 186

In the case of `CC(C)CC(=O)C(=O)O` [KIC, alpha-ketoisocaproate], the “F/G: kilograms feed per kilogram weight gain” value ([1]; Trial 1, CGM diet, 1% KIC (0%: 4.53), * p<.05) is reported as 5.20, the “LEAN: amount of lean meat” value ([1]; Trial 1, CGM diet, 1% KIC (0%: 5.9)) is reported as 6.0 kilograms and the “WOOL: amount of wool” value ([1]; Trial 1, CGM diet, 1% KIC (0%: .158), * p<.05) is reported as “.167 grams”. For the same molecule, the “BACK FAT: amount of back fat” value ([1]; Trial 1, CGM diet, 1% KIC (0%: .20)) was “.18 inches”, the “ADG: average daily (24 hrs.) gain” value ([1]; Trial 1, CGM diet, 1% KIC (0%: .37)) was “.30 kilograms” and the “F/G: kilograms feed per kilogram weight gain” value ([1]; Trial 1, SBM diet, 1% KIC (0%: 5.04), * p<.05) was 4.82. For the same molecule, the “LEAN: amount of lean meat” value ([1]; Trial 1, SBM diet, 1% KIC (0%: 6.2)) was 6.8 kilograms, the “WOOL: amount of wool” value ([1]; Trial 1, SBM diet, 1% KIC (0%: .176), * p<.05) was “.216 grams” and the “BACK FAT: amount of back fat” value ([1]; Trial 1, SBM diet, 1% KIC (0%: .26)) was “.22 inches”. The “ADG: average daily (24 hrs.) gain” value ([1]; Trial 1, SBM diet, 1% KIC (0%: .33)) was “.36 kilograms”, the “F/G: kilograms feed per kilogram weight gain” value ([1]; Trial 2, CGM diet, 1% KIC (0%: 4.17)) was 4.35 and the “LEAN: amount of lean meat” value ([1]; Trial 2, CGM diet, 1% KIC (0%: 6.1)) was 5.8 kilograms. The “WOOL: amount of wool” value ([1]; Trial 2, CGM diet, 1% KIC (0%: .262), * p<.05) was “.294 grams”, the “BACK FAT: amount of back fat” value ([1]; Trial 2, CGM diet, 1% KIC (0%: .29)) was “.20 inches” and the “ADG: average daily (24 hrs.) gain” value ([1]; Trial 2, CGM diet, 1% KIC (0%: .333), * p<.05) was “.308 kilograms”. The “F/G: kilograms feed per kilogram weight gain” value ([1]; Trial 2, SBM diet, 1% KIC (0%: 4.76), * p<.05) was 4.17, the “LEAN: amount of lean meat” value ([1]; Trial 2, SBM diet, 1% KIC (0%: 5.9)) was 5.4 kilograms and the “WOOL: amount of wool” value ([1]; Trial 2, SBM diet, 1% KIC (0%: .213), * p<.05) was “.267 grams”. The “BACK FAT: amount of back fat” value ([1]; Trial 2, SBM diet, 1% KIC (0%: .26)) was “.21 inches”, the “ADG: average daily (24 hrs.) gain” value ([1]; Trial 2, SBM diet, 1% KIC (0%: .304), * p<.05) was “.339 kilograms” and the “Feces output, Change” value ([2]; KIC group, control +1) was -6 g N/day. For the same molecule, the “Milk output, Change” value ([2]; KIC group, control +3) was “+9 g N/day”, the “Urine output, Change” value ([2]; KIC group, control +15) was 0 g N/day and the “Body storage (N balance), Change” value ([2]; KIC group, control +18) was “+26 g N/day”. The “Feed intake, Change” value ([2]; KIC group, control +37) was “+28 g N/day”, the “Milk fat yield, Change” value ([2]; KIC group, control +.00) was “+.09 kg/day” and the “Milk fat percent, Change” value ([2]; KIC group, control +.03) was “+.21%”. The “Milk protein percent, Change” value ([2]; KIC group, control +.13) was “+.11%”, the “Milk yield, Change” value ([2]; KIC group, control -.13) was “+.97 kg/day” and the “Milk protein percent, Post” value ([2]; Na-KIC 0.75% of diet dry matter, pre 3.35) was 3.46%. For the same molecule, the “Milk fat percent, Post” value ([2]; Na-KIC 0.75% of diet dry matter, pre 4.07) was 4.27%, the “Milk yield, Post” value ([2]; Na-KIC 0.75% of diet dry matter, pre 23.0) was 23.9 kg/day and the “Body storage (N balance), Post” value ([2]; Na-KIC 0.75% of diet dry matter, pre 34) was 60 g N/day. For the same molecule, the “Milk output, Post” value ([2]; Na-KIC 0.75% of diet dry matter, pre 131) was 140 g N/day, the “Feces output, Post” value [2, 3] was 180 g N/day and the “Urine output, Post” value [2, 3] was 186 g N/day. For the same molecule, the “Feed intake, Post” value ([2]; Na-KIC 0.75% of diet dry matter, pre 538) was 566 g N/day, the “Milk fat yield, Post” value ([2]; Na-KIC 0.75% of diet dry matter, pre printed 92) was 1.00 kg/day and the “milk fat yield increase” value ([2]; above controls, p<0.02) was 10%. The higher milk yields ([2]; vs control cows) was “+5%”, the “higher percent milk fat” value ([2]; vs control cows, p<0.04) was “+4%” and the “Body storage (N balance), % Change” value ([2]; vs control, NS) was “+24%”. For the same molecule, the “Body storage (N balance), KIC effect” value ([2]; vs control, NS) was “+8 g N/day”, the “Feces output, % Change” value ([2]; vs control, NS) was -4% and the “Feces output, KIC effect” value ([2]; vs control, NS) was -8 g N/day. For the same molecule, the “Feed intake, % Change” value ([2]; vs control, NS) was -2%, the “Feed intake, KIC effect” value ([2]; vs control, NS) was -9 g N/day and the “Milk output, % Change” value ([2]; vs control, NS) was “+5%”. The “Milk output, KIC effect” value ([2]; vs control, NS) was “+6 g N/day”, the “Milk protein percent, KIC effect” value ([2]; vs control, NS) was “-.03%” and the “Urine output, % Change” value ([2]; vs control, NS) was -85. For the same molecule, the “Urine output, KIC effect” value ([2]; vs control, NS) was -15 g N/day, the “Milk fat yield, % Change” value ([2]; vs control, p < .01) was “+10.4%” and the “Milk fat yield, KIC effect” value ([2]; vs control, p < .01) was “+.09 kg/day”. The “Milk fat percent, % Change” value ([2]; vs control, p < .04) was “+4.3%”, the “Milk fat percent, KIC effect” value ([2]; vs control, p < .04) was “+.17%” and the “Milk yield, % Change” value ([2]; vs control, p < .15) was “+5.1%”. The “Milk yield, KIC effect” value ([2]; vs control, p < .15) was “+1.10 kg/day”.
